Results on two compounds are retold here after patent US10590085B2, “Heterocyclic amides as kinase inhibitors” (GlaxoSmithKline Intellectual Property Development Limited, priority 2015, dated 2020).

Data set [1] concerns the target T1, RIP1 kinase (Homo sapiens, UniProt Q13546).
T1 sequence (Q13546 1-375 limits assumed): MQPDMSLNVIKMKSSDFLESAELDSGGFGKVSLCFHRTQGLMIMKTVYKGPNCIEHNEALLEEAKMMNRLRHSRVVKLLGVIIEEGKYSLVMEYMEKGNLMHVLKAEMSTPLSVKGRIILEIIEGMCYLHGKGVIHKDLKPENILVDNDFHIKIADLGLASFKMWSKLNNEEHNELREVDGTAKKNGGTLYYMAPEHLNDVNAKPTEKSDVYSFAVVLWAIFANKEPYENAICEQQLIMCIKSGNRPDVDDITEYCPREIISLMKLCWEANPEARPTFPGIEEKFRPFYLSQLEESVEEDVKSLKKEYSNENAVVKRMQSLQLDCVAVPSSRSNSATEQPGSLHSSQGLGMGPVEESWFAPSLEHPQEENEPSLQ
As to the kind of experiment: fluorescent polarization based binding assay. Particulars: mean value, minimum of 2 experiments. From the text: A fluorescent polarization based binding assay was used to asses the activity of the compounds of this invention, the details of which are disclosed in International Patent Appln. No. PCT/IB2014/059004, now, International Patent Appln. Pub.

Data set [2] deals with TNF/zVAD induced temperature loss in mice. As to the kind of experiment: TNF-driven systemic inflammatory response syndrome model using TNF plus zVAD (temperature loss). In kind it is in vivo, mouse. Particulars: pre-dosed 15 minutes before i.v. mouse TNF and zVAD.
In data set [3] the test system is TNF induced temperature loss in mice. As to the kind of experiment: TNF (alone) version of the systemic inflammatory response syndrome model (temperature loss). The format is in vivo, mouse. From the text: The model can be run in a long modality (using TNF alone i.v.) which results in the termination of the study in ˜8 hrs (under IACUC guidelines for temperature loss). […] All data are shown as means±standard error of the mean.

The conditions of data set [4]: background statement; cited from earlier work.
In data set [5] the test system is RIP1 kinase. Particulars: ischemic brain injury, retinal ischemia/reperfusion injury, Huntington's disease, renal ischemia reperfusion injury, cisplatin induced kidney injury, traumatic brain injury; cited from earlier work.

In the case of `CC(=O)N1CCC(C(=O)N2N=CC[C@H]2c2cc(F)cc(F)c2)CC1` [Example 203, (S)-1-(4-(5-(3,5-difluorophenyl)-4,5-dihydro-1H-pyrazole-1-carbonyl)piperidin-1-yl)ethanone], the IC50 on RIP1 kinase [1] is around 31.6 nM. The “% Inhibition” value is recorded as 9% in data set [2] (1 mg/kg PO); 46% in data set [2] (10 mg/kg PO); 88% in data set [2] (100 mg/kg PO); −14% in data set [3] (1 mg/kg orally pre-dosed 15 minutes before i.v. mouse TNF (30 μg/mouse) alone); 45% in data set [3] (10 mg/kg orally pre-dosed 15 minutes before i.v. mouse TNF alone); 86% in data set [3] (100 mg/kg orally pre-dosed 15 minutes before i.v. mouse TNF alone).
`CN1C(=O)C(Cc2c[nH]c3ccccc23)NC1=S` (stereo not drawn) [Necrostatin-1]: the oral bioavailability entry in data set [4] was “poor”. In addition, the “effectiveness in alleviating disease” value with RIP1 kinase [5] was “effective”.

As usually defined, the IC50 is the concentration that inhibits the measured activity by half. Lower therefore signals inhibition by little substance. Usually % Inhibition stands for the relative decrease from the control value, in per cent.
